In assay [1] the test system is murine A20 lymphoma cells. The assay can be described thus: Subcutaneous xenograft model of murine A20 lymphoma. It counts as in vivo, female BALB/c mice. To be noted: A20 s.c. How it is done:
• (1) APG-1387: provided by Jiangsu Ascentage Pharmaceutical Development Co., Ltd. The batch number is R12JA076140-A2 and PAPG-1387-DP-201305A. Preserved at 4° C., away from the light and sealed. APG-1387 was administered intravenously (i.v.) or intraperitoneally (i.p.) or at a dosage of 10 mL/kg. APG-1387 was dissolved in 5% castor oil/10% PEG400/85% normal saline. • (2) Anti-PD-1 antibody: purchased from BioXcell. The article number is BE0146 and BE0273. Preserved at 4° C. and sealed. The anti-PD-1 antibody was administered intraperitoneally at a concentration of 100 μg per mice or 200 μg per mice. • (3) Isotype control (anti-IgG): purchased from BioXcell, the product number is BE0089. Preserved at 4° C. and sealed. […]
The mice were injected subcutaneously with 0.5-10×10^6 cells or in the ovary with 6×10^6 cells in situ to build the tumor xenograft model. […] For the orthotopic model, tumor growth was measured by examining in vivo fluorescence images 10 days after inoculation. […] Body weight and tumor size were measured twice per week during the experiment. […]
The calculation of tumor related parameters is the same as set forth in Example 1. Using the fluorescence imaging technique, the strength of the fluorescent signal can represent the growth and metastasis of tumors in vivo. […]

Another assay relates to CT26 colorectal cancer. Nature of the assay: Combination therapy in CT26 mouse colorectal cancer model. It counts as in vivo. To be noted: for T/C (%) value on day 18 after administration: APG-1387 0.2 mg/kg i.v. once daily, docetaxel 8 mg/kg i.p. once weekly, anti-PD-1 200 μg/mouse i.p. twice weekly. The method, then: Cell inoculation method was used to establish a […] tumor-immunized normal mouse subcutaneous homograft tumor model: tumor cells in logarithmic growth phase were collected, counted, and then resuspended in 1×PBS. The concentration of the cell suspension was adjusted to 2.5-5×10^7/mL. Tumor cells, 5-10×10^6/0.2 mL/mouse, were inoculated subcutaneously in the right back of the immunized normal mouse with a 1 mL syringe ([…]). All animal experimental operations were strictly in accordance with standards for use and management of laboratory animals by Gima Gene Co., Ltd and Suzhou Yasheng Pharmaceutical Co., Ltd. Relevant parameters were calculated with reference to China's NMPA “Guidelines for Non-clinical Research Techniques of Cytotoxic Antitumor Drugs”.
Animal weight and tumor size were measured twice a week during the experiment. Animals were observed daily for status and the occurrence of death. Routine monitoring included the effects of tumor growth and treatment on the normal behaviors of animals, specifically including the activity, feeding and drinking, weight gain or loss, eyes, clothing hair, as well as other abnormalities of the laboratory animals. The deaths and clinical symptoms observed during the experiment were recorded in the original data. The whole process of administration, measurement of mouse weight and tumor volume was carried out in an ultra-clean bench. According to requirements of the experimental program, plasma and tumor tissue were collected, weighed and photographed for record after the end of last administration. Plasma and tumor samples were frozen at −80° C. for later use.
Tumor volume (TV) was calculated as TV=a×b^2/2, wherein a and b represented the length and width of tumor measurement, respectively.
Relative tumor volume (RTV) was calculated as RTV=Vt/V1, wherein V1 was the tumor volume at the time of grouping administration, and Vt was the tumor volume measured on day t after administration.
The evaluation index of anti-tumor activity was relative tumor proliferation rate T/C (%), and was calculated as: relative tumor proliferation rate T/C (%)=(TRTV/CRTV)×100%, wherein TRTV was RTV in treatment group, and CRTV was RTV in vehicle control group.
Tumor remission rate (%) was the number of SD (stable disease), PR (partial regression) and CR (complete regression) in tumor-bearing mice after treatment divided by the total number of mice in that group×100%. CR refers to the complete regression of the tumor, which means the tumor is inaccessible after treatment. PR refers to the partial regression of the tumor, which means tumor volume becomes smaller than before treatment. SD refers to stable tumor progression, which means tumor volume is the same as before treatment. Change of body weight (%)=(measurement of body weight−body weight when grouping)/body weight when grouping×100%.
Efficacy evaluation criteria: according to China's NMPA “Guidelines for Non-clinical Research Techniques of Cytotoxic Antitumor Drugs” (November 2006), T/C (%) value 40% and p<0.05 by statistical analysis were considered as efficacious. If the weight loss of mice exceeded 20%, or the drug-related death percentage exceeded 20%, the drug dose was considered to be severely toxic.
According to Clarke R., Issues in experimental design and endpoint analysis in the study of experimental cytotoxic agents in vivo in breast cancer and other models [J].
A tumor model of CT26 colorectal cancer mouse was established, and the combined anti-tumor effect of APG-1387 with anti-PD-1 antibody and docetaxel was evaluated on this model. The administration regimen was as follows:
APG-1387 monotherapy group: 0.2 mg/kg, intravenous injection, once daily for a total of 17 days;
Docetaxel monotherapy group: 8 mg/kg, intraperitoneal injection, once weekly for a total of 17 days;
Anti-PD-1 antibody monotherapy group: 200 μg/mouse, intraperitoneal injection, twice weekly for a total of 2.5 weeks (i.e., 17 days); […]

As to `CC(=O)O[C@@]12CO[C@@H]1C[C@H](O)[C@@]1(C)C(=O)[C@H](O)C3=C(C)[C@@H](OC(=O)[C@H](O)[C@@H](NC(=O)OC(C)(C)C)c4ccccc4)C[C@@](O)([C@@H](OC(=O)c4ccccc4)[C@H]21)C3(C)C` [Docetaxel, docetaxel], the “anti-tumor effect on the 24th day after administration” value in assay [1] is “not significant”. Further, the “T/C (%) value on day 18 after administration” value with CT26 colorectal cancer and in the assay with CT26 colorectal cancer (listed as docetaxel) was 66% throughout. Besides, the “Tumor remission rate on day 18 after administration (%)” value with CT26 colorectal cancer (day 18) came to 25%. In addition, the “Tumor remission rate on day 18 after administration: animals with SD/PR/CR per animals in group” value was 1/4 SD in the assay with CT26 colorectal cancer (day 18) and “¼” in the assay on CT26 colorectal cancer (day 18, listed as docetaxel).

Values taken from patent US12186304B2, “Method for treating cancer by combination of IAP inhibitor and modulator of immune checkpoint molecule” (ASCENTAGE PHARMA (SUZHOU) CO., LTD., priority 2018, dated 2025).
